Values after ≈ are worked out from the molar mass of the structure shown. Active and inactive are the calls of the source. The rule behind the calls is not given here.
Assays:
Escherichia coli [1] = assay: Antibacterial activity against Escherichia coli assessed as diameter of growth inhibition zone after 24 hrs by two fold serial dilution method; assay type: functional
Staphylococcus aureus [2] = assay: Antibacterial activity against Staphylococcus aureus assessed as diameter of growth inhibition zone after 24 hrs by two fold serial dilution method; assay type: functional
Enterococcus [3] = assay: Antibacterial activity against Enterococcus assessed as diameter of growth inhibition zone after 24 hrs by two fold serial dilution method; assay type: functional
Escherichia coli [4] = assay: Antibacterial activity against Escherichia coli assessed as growth inhibition after 24 hrs by two fold serial dilution method; assay type: functional
Staphylococcus aureus [5] = assay: Antibacterial activity against Staphylococcus aureus assessed as growth inhibition after 24 hrs by two fold serial dilution method; assay type: functional
Enterococcus [6] = assay: Antibacterial activity against Enterococcus assessed as growth inhibition after 24 hrs by two fold serial dilution method; assay type: functional
[7] = Induction of DNA degradation in supercoiled plasmid DNA (unknown origin) by agarose gel electrophoresis in absence of UV light
[8] = Induction of DNA degradation in open circular plasmid DNA (unknown origin) by agarose gel electrophoresis in absence of UV light
[9] = Induction of DNA photocleavage in supercoiled plasmid DNA (unknown origin) at 60 ug by agarose gel electrophoresis in presence of UV light
[10] = Induction of DNA photocleavage in open circular plasmid DNA (unknown origin) at 60 ug by agarose gel electrophoresis in presence of UV light
[11] = Induction of DNA photocleavage in supercoiled plasmid DNA (unknown origin) at 30 ug by agarose gel electrophoresis in presence of UV light
[12] = Induction of DNA photocleavage in open circular plasmid DNA (unknown origin) at 30 ug by agarose gel electrophoresis in presence of UV light
[13] = Induction of DNA photocleavage in supercoiled plasmid DNA (unknown origin) at 15 ug by agarose gel electrophoresis in presence of UV light
[14] = Induction of DNA photocleavage in open circular plasmid DNA (unknown origin) at 15 ug by agarose gel electrophoresis in presence of UV light
[15] = Induction of DNA photocleavage in supercoiled plasmid DNA (unknown origin) at 5 ug by agarose gel electrophoresis in presence of UV light
[16] = Induction of DNA photocleavage in open circular plasmid DNA (unknown origin) at 5 ug by agarose gel electrophoresis in presence of UV light
[17] = Induction of DNA photocleavage in supercoiled plasmid DNA (unknown origin) at 2.5 ug by agarose gel electrophoresis in presence of UV light
[18] = Induction of DNA photocleavage in open circular plasmid DNA (unknown origin) at 2.5 ug by agarose gel electrophoresis in presence of UV light
[19] = Induction of DNA photocleavage in supercoiled plasmid DNA (unknown origin) at 1 ug by agarose gel electrophoresis in presence of UV light
[20] = Induction of DNA photocleavage in open circular plasmid DNA (unknown origin) at 1 ug by agarose gel electrophoresis in presence of UV light
HCT-116 [21] = assay: Anticancer activity against human HCT116 cells assessed as cell viability after 48 hrs by MTT assay; assay type: functional, cell-based
Pseudomonas aeruginosa [22] = assay: Antibacterial activity against Pseudomonas aeruginosa assessed as diameter of growth inhibition zone after 24 hrs by two fold serial dilution method; assay type: functional
Klebsiella pneumoniae [23] = assay: Antibacterial activity against Klebsiella pneumoniae assessed as diameter of growth inhibition zone after 24 hrs by two fold serial dilution method; assay type: functional
Pseudomonas aeruginosa [24] = assay: Antibacterial activity against Pseudomonas aeruginosa assessed as growth inhibition after 24 hrs by two fold serial dilution method; assay type: functional
Klebsiella pneumoniae [25] = assay: Antibacterial activity against Klebsiella pneumoniae assessed as growth inhibition after 24 hrs by two fold serial dilution method; assay type: functional
Escherichia coli [26] = assay: Antibacterial activity against Escherichia coli assessed as growth inhibition after 24 hrs by two fold serial dilution method relative to ampicillin; assay type: functional; design: scale not given: the % may be the effect or the level left
Pseudomonas aeruginosa [27] = assay: Antibacterial activity against Pseudomonas aeruginosa assessed as growth inhibition after 24 hrs by two fold serial dilution method relative to ampicillin; assay type: functional; design: scale not given: the % may be the effect or the level left
HCT-116 [28] = assay: Anticancer activity against human HCT116 cells assessed as cell viability at 10 uM after 48 hrs by MTT assay; assay type: functional; details: HCT-116, 48 h, read-out: Activity
HCT-116 [29] = assay: Anticancer activity against human HCT116 cells assessed as cell viability at 25 uM after 48 hrs by MTT assay; assay type: functional; details: HCT-116, 48 h, read-out: Activity
HCT-116 [30] = assay: Anticancer activity against human HCT116 cells assessed as cell viability at 50 uM after 48 hrs by MTT assay; assay type: functional; details: HCT-116, 48 h, read-out: Activity
SK-OV-3 = assay: Anticancer activity against human SKOV3 cells assessed as cell viability after 72 hrs by MTT assay; assay type: functional, cell-based
HT-29 = assay: Anticancer activity against human HT-29 cells assessed as cell viability at 50 uM after 72 hrs by MTT assay; assay type: functional, cell-based
DU-145 = assay: Anticancer activity against human DU145 cells assessed as cell viability at 50 uM after 72 hrs by MTT assay; assay type: functional, cell-based
Staphylococcus aureus [31] = assay: Antibacterial activity against Staphylococcus aureus assessed as growth inhibition after 24 hrs by two fold serial dilution method relative to ampicillin; assay type: functional; design: scale not given: the % may be the effect or the level left

Structure (SMILES)	MIC (Escherichia coli [4]) [µg/mL]	MIC (Staphylococcus aureus [5]) [µg/mL]	MIC (Enterococcus [6]) [µg/mL]	Activity [7]	Activity [8]	Activity [9]	Activity [10]	Activity [11]	Activity [12]	Activity [13]	Activity [14]	Activity [15]	Activity [16]	Activity [17]	Activity [18]	Activity [19]	diameter of the inhibition zone (DIZ) (Escherichia coli [1]) [mm]	diameter of the inhibition zone (DIZ) (Staphylococcus aureus [2]) [mm]	diameter of the inhibition zone (DIZ) (Enterococcus [3]) [mm]	Activity (HCT-116 [21])	other results
Cc1ccc(C(=O)Cn2nc(C)cc2C)cc1	512 (≈ 2240 µM)	256 (≈ 1120 µM)	64 (≈ 280 µM)	inactive	inactive												11	11	15	inactive	
Cc1cc(C)n(CC(=O)c2ccccc2)n1	512 (≈ 2390 µM)	512 (≈ 2390 µM)	512 (≈ 2390 µM)	inactive	inactive												11	10	13		diameter of the inhibition zone (DIZ) (Pseudomonas aeruginosa [22]): 13 mm; diameter of the inhibition zone (DIZ) (Klebsiella pneumoniae [23]): 10 mm; MIC (Pseudomonas aeruginosa [24]): 64 µg/mL (≈ 299 µM); MIC (Klebsiella pneumoniae [25]): 64 µg/mL (≈ 299 µM); viability at 10 µM (HCT-116 [28]): 81.4%; viability at 25 µM (HCT-116 [29]): 55.4%; viability at 50 µM (HCT-116 [30]): 52.4%; Activity (SK-OV-3): inactive; Activity (HT-29): inactive; Activity (DU-145): inactive; Activity (Escherichia coli [26]): 12.5%; Activity (Pseudomonas aeruginosa [27]): 12.5%
Cc1cc(C)n(CC(=O)c2ccc(Br)cc2)n1	256 (≈ 873 µM)	32 (≈ 109 µM)	512 (≈ 1750 µM)	inactive	inactive	Active	Active	Active	Active	Active	Active	Active	Active	Active	Active	Active	14	14	12		Activity [20]: Active; viability at 10 µM (HCT-116 [28]): 62.4%; viability at 25 µM (HCT-116 [29]): 55.9%; viability at 50 µM (HCT-116 [30]): 47.4%; Activity (SK-OV-3): inactive; Activity (HT-29): inactive; Activity (DU-145): inactive; Activity (Staphylococcus aureus [31]): 6.25%

Continued, in another order:

MIC (Escherichia coli [4]) [µg/mL]	MIC (Staphylococcus aureus [5]) [µg/mL]	MIC (Enterococcus [6]) [µg/mL]	Activity [7]	Activity [8]	Activity [9]	Activity [10]	Activity [11]	Activity [12]	Activity [13]	Activity [14]	Activity [15]	Activity [16]	Activity [17]	Activity [18]	Activity [19]	Structure (SMILES)	diameter of the inhibition zone (DIZ) (Escherichia coli [1]) [mm]	diameter of the inhibition zone (DIZ) (Staphylococcus aureus [2]) [mm]	diameter of the inhibition zone (DIZ) (Enterococcus [3]) [mm]	Activity (HCT-116 [21])	other results
256 (≈ 987 µM)	128 (≈ 494 µM)	256 (≈ 987 µM)	inactive	inactive	Active	Active	Active	Active	Active	Active	Active	Active	Active	Active	Active	Cc1cc(C)n(CC(=O)c2ccc([N+](=O)[O-])cc2)n1	11	13	14	inactive	Activity [20]: Active
64 (≈ 276 µM)	256 (≈ 1100 µM)	64 (≈ 276 µM)	inactive	inactive	Active	Active	Active	Active	Active	Active						Cc1cc(C)n(CC(=O)c2ccc(F)cc2)n1	15	11	15	inactive	diameter of the inhibition zone (DIZ) (Pseudomonas aeruginosa [22]): 11 mm; diameter of the inhibition zone (DIZ) (Klebsiella pneumoniae [23]): 9 mm; MIC (Pseudomonas aeruginosa [24]): 256 µg/mL (≈ 1100 µM); MIC (Klebsiella pneumoniae [25]): 256 µg/mL (≈ 1100 µM); Activity (Escherichia coli [26]): 12.5%; Activity (Pseudomonas aeruginosa [27]): 12.5%
256 (≈ 1030 µM)	256 (≈ 1030 µM)	512 (≈ 2060 µM)	inactive	inactive												Cc1cc(C)n(CC(=O)c2ccc(Cl)cc2)n1	14	12	12	inactive	

Source: ChEMBL document CHEMBL3259522, “Synthesis and biological evaluation of some 2-(3,5-dimethyl-1H-pyrazol-1-yl)-1-arylethanones: antibacterial, DNA photocleavage, and anticancer activities” (2014)
